Measured values published in patent publication US8685977B2, “Chemical compounds” (Pfizer Limited, priority 2010, dated 2014).
pIC50: −log10 of the molar value.

target: T1, Nav1.7 (or SCN9A) channel (Homo sapiens, UniProt Q15858); assay: Nav1.7 PatchXpress 7000 automated electrophysiology assay (HEK cells stably expressing hSCN9A); type: cell-based; details: voltage-clamped at V1/2 of inactivation, read-out: Nav1.7 EIC50
T1 construct: expressed in transfected cells
Protocol: The ability of the compounds of formula (I) to block the Nav1.7 (or SCN9A) channel was measured using the assays described below.
Human Embryonic Kidney (HEK) cells were transfected with an hSCN9A construct using lipofectamine reagent (Invitrogen), using standard techniques. Cells stably expressing the hSCN9A constructs were identified by their resistance to G-418 (400 μg/ml). Clones were screened for expression using the whole-cell voltage-clamp technique.
HEK cells stably transfected with hSCN9A were maintained in DMEM medium supplemented with 10% heat-inactivated fetal bovine serum and 400 μg/ml G-418 in an incubator at 37° C. with a humidified atmosphere of 10% CO2. For HTS, cells were harvested from flasks by trypsinization and replated in an appropriate multi-well plate (typically 96 or 384 wells/plate) such that confluence would be achieved within 24 hours of plating. For electrophysiological studies, cells were removed from the culture flask by brief trypsinization and re-plated at low density onto glass cover slips. Cells were typically used for electrophysiological experiments within 24 to 72 hours after plating.
Cover slips containing HEK cells expressing hSCN9A were placed in a bath on the stage of an inverted microscope and perfused (approximately 1 ml/minutes) with extracellular solution of the following composition: 138 mM NaCl, 2 mM CaCl2, 5.4 mM KCl, 1 mM MgCl2, 10 mM glucose, and 10 mM HEPES, pH 7.4, with NaOH. […] The osmolarity of the extracellular and intracellular solutions was 300 mOsm/kg and 295 mOsm/kg, respectively. All recordings were made at room temperature (22-24° C.) using AXOPATCH 200B amplifiers and PCLAMP software (Axon Instruments, Burlingame, Calif.).
HEK cells stably transfected with hSCN9A were viewed under Hoffman contrast optics and placed in front of an array of flow pipes emitting either control or compound-containing extracellular solutions. All compounds were dissolved in dimethyl sulfoxide to make 10 mM stock solutions, which were then diluted into extracellular solution to attain the final concentrations desired. […] The voltage-dependence of inactivation was determined by applying a series of depolarizing prepulses (8 sec long in 10 mV increments) from a negative holding potential. The voltage was then immediately stepped to 0 mV to assess the magnitude of the sodium current. Currents elicited at 0 mV were plotted as a function of prepulse potential to allow estimation of the voltage at which 50% of the channels were inactivated (midpoint of inactivation or V1/2). Compounds were tested for their ability to inhibit hSCN9A sodium channels by activating the channel with a 20 msec voltage step to 0 mV following an 8 second conditioning prepulse to the empirically determined V1/2. Compound effect (% inhibition) was determined by difference in current amplitude before and after application of test compounds. For ease of comparison, “estimated IC-50” (EIC50) values were calculated from single point electrophysiology data by the following equation, (tested concentration, uM)×(100-% inhibition/% inhibition). Inhibition values <20% and >80% were excluded from the calculation.
Electrophysiological assays were conducted with PatchXpress 7000 hardware and associated software (Molecular Devices Corp). All assay buffers and solutions were identical to those used in conventional whole-cell voltage clamp experiments described above. hSCN9A cells were grown as above to 50%-80% confluency and harvested by trypsinization. Trypsinized cells were washed and resuspended in extracellular buffer at a concentration of 1×10^6 cells/ml. The onboard liquid handling facility of the PatchXpress was used for dispensing cells and application of test compounds. Determination of the voltage midpoint of inactivation was as described for conventional whole-cell recordings. Cells were then voltage-clamped to the empirically determined V1/2 and current was activated by a 20 msec voltage step to 0 mV. […]

T1 sequence (Q15858 whole entry): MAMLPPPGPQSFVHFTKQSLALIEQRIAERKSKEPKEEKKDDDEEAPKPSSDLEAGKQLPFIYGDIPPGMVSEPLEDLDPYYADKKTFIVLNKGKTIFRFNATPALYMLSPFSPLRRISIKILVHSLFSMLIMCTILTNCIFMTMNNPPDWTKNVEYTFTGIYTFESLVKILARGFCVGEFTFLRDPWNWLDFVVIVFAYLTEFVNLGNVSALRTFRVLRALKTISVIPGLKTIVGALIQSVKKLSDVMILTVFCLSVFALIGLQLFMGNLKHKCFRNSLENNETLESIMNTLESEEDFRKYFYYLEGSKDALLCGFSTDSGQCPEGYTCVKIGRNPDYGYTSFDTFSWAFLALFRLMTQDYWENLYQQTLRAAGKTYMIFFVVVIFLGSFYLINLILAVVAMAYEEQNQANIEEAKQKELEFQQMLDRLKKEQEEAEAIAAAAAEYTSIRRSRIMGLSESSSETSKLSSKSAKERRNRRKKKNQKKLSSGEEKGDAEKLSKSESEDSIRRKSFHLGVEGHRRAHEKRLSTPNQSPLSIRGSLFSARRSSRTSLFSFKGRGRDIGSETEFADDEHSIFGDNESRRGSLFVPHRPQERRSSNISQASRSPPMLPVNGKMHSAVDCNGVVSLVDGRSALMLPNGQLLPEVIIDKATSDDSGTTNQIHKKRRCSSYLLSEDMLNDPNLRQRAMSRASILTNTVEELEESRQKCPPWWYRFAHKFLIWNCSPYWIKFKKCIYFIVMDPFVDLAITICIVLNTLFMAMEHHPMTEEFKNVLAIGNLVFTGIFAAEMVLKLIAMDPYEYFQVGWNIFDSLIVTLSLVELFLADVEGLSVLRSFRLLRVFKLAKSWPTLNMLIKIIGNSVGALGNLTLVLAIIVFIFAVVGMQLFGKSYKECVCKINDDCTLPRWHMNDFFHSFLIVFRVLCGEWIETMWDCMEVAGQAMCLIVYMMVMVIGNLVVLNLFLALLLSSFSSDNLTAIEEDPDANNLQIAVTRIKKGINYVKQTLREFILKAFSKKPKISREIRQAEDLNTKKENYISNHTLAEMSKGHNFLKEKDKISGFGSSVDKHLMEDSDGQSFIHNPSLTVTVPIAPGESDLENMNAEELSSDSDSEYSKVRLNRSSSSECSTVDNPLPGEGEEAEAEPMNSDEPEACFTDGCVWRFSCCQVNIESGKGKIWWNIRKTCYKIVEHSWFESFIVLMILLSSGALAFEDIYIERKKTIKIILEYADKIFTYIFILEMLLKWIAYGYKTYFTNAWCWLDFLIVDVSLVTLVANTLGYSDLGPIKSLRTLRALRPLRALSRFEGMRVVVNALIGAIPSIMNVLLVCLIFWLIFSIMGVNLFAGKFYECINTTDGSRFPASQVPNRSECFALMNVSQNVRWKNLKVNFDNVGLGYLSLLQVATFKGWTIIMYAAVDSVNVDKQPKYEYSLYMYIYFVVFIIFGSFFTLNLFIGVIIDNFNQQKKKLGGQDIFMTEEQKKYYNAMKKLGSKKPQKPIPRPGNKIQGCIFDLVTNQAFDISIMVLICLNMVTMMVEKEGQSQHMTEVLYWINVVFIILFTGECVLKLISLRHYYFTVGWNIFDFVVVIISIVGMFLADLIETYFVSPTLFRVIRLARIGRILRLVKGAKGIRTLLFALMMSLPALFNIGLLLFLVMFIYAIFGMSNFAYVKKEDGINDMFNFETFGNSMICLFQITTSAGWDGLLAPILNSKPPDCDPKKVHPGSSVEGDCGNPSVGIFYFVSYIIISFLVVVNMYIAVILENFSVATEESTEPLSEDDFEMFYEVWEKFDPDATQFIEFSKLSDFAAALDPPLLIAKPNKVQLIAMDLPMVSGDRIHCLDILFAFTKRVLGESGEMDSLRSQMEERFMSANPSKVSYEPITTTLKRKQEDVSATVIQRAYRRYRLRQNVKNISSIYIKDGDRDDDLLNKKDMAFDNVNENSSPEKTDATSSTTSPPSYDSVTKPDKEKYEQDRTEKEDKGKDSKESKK

First: CS(=O)(=O)NC(=O)c1ccc(Oc2ccc(F)cc2)c(Cl)c1 [Example 41, 3-chloro-4-(4-fluorophenoxy)-N-(methylsulfonyl)benzamide]
Second: CS(=O)(=O)NC(=O)c1ccc(Oc2ccc(Cl)c(C(F)(F)F)c2)c(Cl)c1 [Example 44, 3-chloro-4-[4-chloro-3-(trifluoromethyl)phenoxy]-N-(methylsulfonyl)benzamide]
The pIC50 of the first is 0.48 log units higher: 6.18 for the first, 5.70 for the second. The first is the more potent here.

Going from `CS(=O)(=O)NC(=O)c1ccc(Oc2ccc(Cl)c(C(F)(F)F)c2)c(F)c1` [Example 42, 4-[4-chloro-3-(trifluoromethyl)phenoxy]-3-fluoro-N-(methylsulfonyl)benzamide] to `COc1cc(C(=O)NS(C)(=O)=O)ccc1Oc1ccc(Cl)c(C(F)(F)F)c1` [Example 59, 4-[4-chloro-3-(trifluoromethyl)phenoxy]-3-methoxy-N-(methylsulfonyl)benzamide], the pIC50 falls from 6.23 to 5.40 (0.83 log units).

Going from `CS(=O)(=O)NC(=O)c1ccc(Oc2ccc(Cl)c(C(F)(F)F)c2)cc1Cl` [Example 43, 2-chloro-4-[4-chloro-3-(trifluoromethyl)phenoxy]-N-(methylsulfonyl)benzamide] to `CS(=O)(=O)NC(=O)c1ccc(Oc2ccc(Cl)c(C(F)(F)F)c2)c(C#N)c1` [Example 62, 4-[4-chloro-3-(trifluoromethyl)phenoxy]-3-cyano-N-(methylsulfonyl)benzamide], the pIC50 rises from 5.24 to 6.05 (0.81 log units). The second is the more potent here.

Compared with `CS(=O)(=O)NC(=O)c1cc(F)c(Oc2ccc(Cl)c(C(F)(F)F)c2)c(F)c1` [Example 45, 4-(4-chloro-3-(trifluoromethyl)phenoxy)-3,5-difluoro-N-(methylsulfonyl)benzamide], `CS(=O)(=O)NC(=O)c1cc(F)c(Oc2ccc(Cl)c(C(F)(F)F)c2)cc1F` [Example 75, 4-(4-chloro-3-(trifluoromethyl)phenoxy)-2,5-difluoro-N-(methylsulfonyl)benzamide] is 0.39 log units higher in pIC50: 5.96 for the first, 6.35 for the second. The second is the more potent here.

`COc1cc(Cl)ccc1Oc1cc(F)c(C(=O)NS(C)(=O)=O)cc1F` [Example 47, 4-(4-chloro-2-methoxyphenoxy)-2,5-difluoro-N-(methylsulfonyl)benzamide] and `COc1ccc(Cl)cc1Oc1cc(F)c(C(=O)NS(C)(=O)=O)cc1F` [Example 67, 4-(5-chloro-2-methoxyphenoxy)-2,5-difluoro-N-(methylsulfonyl)benzamide] are within 0.2 log units of each other in pIC50: 5.40 for the first, 5.30 for the second.

`CS(=O)(=O)NC(=O)c1cc(Cl)c(Oc2ccc(Cl)c(OC(F)F)c2)cc1F` [Example 48, 5-chloro-4-[4-chloro-3-(difluoromethoxy)phenoxy]-2-fluoro-N-(methylsulfonyl)benzamide] and `CS(=O)(=O)NC(=O)c1cc(Cl)c(Oc2ccc(OC(F)F)c(Cl)c2)cc1F` [Example 51, 5-chloro-4-[3-chloro-4-(difluoromethoxy)phenoxy]-2-fluoro-N-(methylsulfonyl)benzamide] are within 0.2 log units of each other in pIC50: 6.68 for the first, 6.59 for the second.

First: CS(=O)(=O)NC(=O)c1cc(F)c(Oc2ccc(Cl)c(OC(F)F)c2)cc1F [Example 49, 4-[4-chloro-3-(difluoromethoxy)phenoxy]-2,5-difluoro-N-(methylsulfonyl)benzamide]
Second: CS(=O)(=O)NC(=O)c1cc(F)c(Oc2ccc(Cl)c(OC(F)(F)F)c2)cc1F [Example 56, 4-(4-chloro-3-(trifluoromethoxy)phenoxy)-2,5-difluoro-N-(methylsulfonyl)benzamide]
The pIC50 of the first is 0.42 log units lower: 6.28 for the first, 6.70 for the second. The second is the more potent here.

Going from `CS(=O)(=O)NC(=O)c1ccc(Oc2ccc(C(F)(F)F)cc2-c2ccnnc2)cc1` [Example 50, N-(methylsulfonyl)-4-(2-(pyridazin-4-yl)-4-(trifluoromethyl)phenoxy)benzamide] to `CC(C)S(=O)(=O)NC(=O)c1ccc(Oc2ccc(Cl)c(C(F)(F)F)c2)cc1` [Example 76, 4-(4-chloro-3-(trifluoromethyl)phenoxy)-N-(isopropylsulfonyl)benzamide], the pIC50 rises from less than 5.52 to 6.07. The second is the more potent here.

Going from `COc1cc(Cl)ccc1Oc1cc(F)c(C(=O)NS(C)(=O)=O)cc1Cl` [Example 52, 5-chloro-4-(4-chloro-2-methoxyphenoxy)-2-fluoro-N-(methylsulfonyl)benzamide] to `COc1ccc(Cl)cc1Oc1cc(F)c(C(=O)NS(C)(=O)=O)cc1Cl` [Example 54, 5-chloro-4-(5-chloro-2-methoxyphenoxy)-2-fluoro-N-(methylsulfonyl)benzamide], the pIC50 falls from 6.33 to 5.64 (0.69 log units).

First: CS(=O)(=O)NC(=O)c1cc(Cl)c(Oc2ccc(Cl)cc2OC(F)(F)F)cc1F [Example 53, 5-chloro-4-[4-chloro-2-(trifluoromethoxy)phenoxy]-2-fluoro-N-(methylsulfonyl)benzamide]
Second: CS(=O)(=O)NC(=O)c1cc(F)c(Oc2ccc(Cl)cc2OC(F)(F)F)cc1F [Example 73, 4-[4-chloro-2-(trifluoromethoxy)phenoxy]-2,5-difluoro-N-(methylsulfonyl)benzamide]
The pIC50 of the first is 1.05 log units higher: 7.20 for the first, 6.15 for the second. The first is the more potent here.

First: CS(=O)(=O)NC(=O)c1cc(F)c(Oc2ccc(OC(F)(F)F)c(Cl)c2)cc1F [Example 55, 4-(3-chloro-4-(trifluoromethoxy)phenoxy)-2,5-difluoro-N-(methylsulfonyl)benzamide]
Second: COc1cc(OC(F)(F)F)ccc1Oc1cc(F)c(C(=O)NS(C)(=O)=O)cc1F [Example 72, 2,5-difluoro-4-[2-methoxy-4-(trifluoromethoxy)phenoxy]-N-(methylsulfonyl)benzamide]
The pIC50 of the first is higher: 6.47 for the first, less than 6.00 for the second.

Going from `O=C(NS(=O)(=O)c1ccccc1)c1cc(F)c(Oc2ccc(Cl)c(C(F)(F)F)c2)cc1F` [Example 57, 4-[4-chloro-3-(trifluoromethyl)phenoxy]-2,5-difluoro-N-(phenylsulfonyl)benzamide] to `CCC(C)S(=O)(=O)NC(=O)c1cc(F)c(Oc2ccc(Cl)c(C(F)(F)F)c2)cc1F` (centres unmarked) [Example 58, N-(sec-butylsulfonyl)-4-[4-chloro-3-(trifluoromethyl)phenoxy]-2,5-difluorobenzamide], the pIC50 rises from 6.04 to 6.37 (0.33 log units). The second is the more potent here.

`COc1cc(Oc2ccc(Cl)c(C(F)(F)F)c2)c(F)cc1C(=O)NS(C)(=O)=O` [Example 60, 4-[4-chloro-3-(trifluoromethyl)phenoxy]-5-fluoro-2-methoxy-N-(methylsulfonyl)benzamide] and `COc1cc(C(F)(F)F)ccc1Oc1cc(F)c(C(=O)NS(C)(=O)=O)cc1F` [Example 74, 2,5-difluoro-4-(2-methoxy-4-(trifluoromethyl)phenoxy)-N-(methylsulfonyl)benzamide] cannot be ordered by pIC50: 4.48 for the first, less than 6.00 for the second.

First: COc1cc(Cl)ccc1Oc1cc(OC)c(C(=O)NS(C)(=O)=O)cc1F [Example 61, 4-(4-chloro-2-methoxyphenoxy)-5-fluoro-2-methoxy-N-(methylsulfonyl)benzamide]
Second: COc1cc(F)ccc1Oc1cc(F)c(C(=O)NS(C)(=O)=O)cc1F [Example 69, 2,5-difluoro-4-(4-fluoro-2-methoxyphenoxy)-N-(methylsulfonyl)benzamide]
The pIC50 of the first is lower: less than 5.00 for the first, 5.21 for the second. The second is the more potent here.

`COc1cc(Cl)ccc1Oc1ccc(C(=O)NS(C)(=O)=O)cc1C#N` [Example 63, 4-(4-chloro-2-methoxyphenoxy)-3-cyano-N-(methylsulfonyl)benzamide] and `COc1cc(Cl)ccc1Oc1ccc(C(=O)NS(C)(=O)=O)cc1F` [Example 65, 4-(4-chloro-2-methoxyphenoxy)-3-fluoro-N-(methylsulfonyl)benzamide] cannot be ordered by pIC50: less than 5.52 for the first, less than 6.00 for the second.

Going from `COc1cc(Cl)ccc1Oc1ccc(C(=O)NS(C)(=O)=O)c(F)c1` [Example 64, 4-(4-chloro-2-methoxyphenoxy)-2-fluoro-N-(methylsulfonyl)benzamide] to `COc1cc(Cl)c(Cl)cc1Oc1cc(F)c(C(=O)NS(C)(=O)=O)cc1F` [Example 70, 4-(4,5-dichloro-2-methoxyphenoxy)-2,5-difluoro-N-(methylsulfonyl)benzamide], the pIC50 rises from less than 5.52 to 5.55. The second is the more potent here.
